Reference: US20120295838A1, “Selective poly-substituted glycine antibiotics and related compositions” (priority 2008, published 2012)
Values joined by “and” are separate entries in the source; they are usually repeats but may differ in a detail not shown here. Equal entries are not always repeated. Where two headings read alike, the source gives them in different places. Numbered stars: 1 amine (or outer) side, 2 acyl side, 3 side chain; on linkers, the order of the positions; unused ones are H or OH. Square brackets hold non-standard residues; d marks the D form. Ends that are not written are not given here. Peptide text beside a SMILES is read from it. Gly(N-CH2CH2-imidazol-4-yl) = O=C(O)CNCCc1c[nH]cn1; X1 = CC(C)[C@H](C)N(CC(=O)[*:2])[*:1]; Nspe = C[C@H](NCC(=O)O)c1ccccc1; Nphe = O=C(O)CNCc1ccccc1; Nlys = NCCCCNCC(=O)O

Legend:
Format in all cases: cell-based
[1] = system: human erythrocytes; assay: Hemolysis assay
Procedure, shortened: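 Heparinised fresh human erythrocytes, 20 vol % in PBS pH 7.4, mixed 1:1 with 1:2 serially diluted peptoid and incubated 1 h at 37 °C. PBS alone as 0% and 0.2 vol % Triton X-100 as 100% hemolysis; after 1200 g spin for 15 min, supernatant A350 read.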

[2] = system: B. subtilis ATCC 6633; conditions: for Selectivity ratio SR B. subtilis: Table 6, ratio of 10% hemolytic dose to B. subtilis MIC
Procedure, shortened: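 Broth microdilution MICs per CLSI M7-A6 in cation-adjusted Mueller-Hinton broth, using 1×10^6 CFU/mL inoculum added 1:1 to twofold serial peptoid dilutions. Values reproducible across three independent experiments, each with two parallel trials.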

[3] = system: E. coli ATCC 35218; conditions: for Selectivity ratio SR E. coli: Table 6, ratio of 10% hemolytic dose to E. coli MIC; for SR: Table 8, calculated as HD10/E. coli MIC

Molecule | HD10 ([1]; human, 1 h, pH 7.4) [µM] | HD50 ([1]; human, 1 h, pH 7.4) [µM] | Selectivity ratio SR B. subtilis [2] | MIC for E. coli ATCC 35218 [3] [µM] | Selectivity ratio SR E. coli [3] | SR [3] | HD10 [1] | HD50 [1] | MIC for B. subtilis ATCC 6633 [2] [µM] | Selectivity ratio SR E. coli ([3]; listed as 1-Nspd2,5,8,11)
GIGKFLKKAKKFGKAFVKILKK-NH2 [pexiganan, reference compound] | 73 | > 200 | 44 | 3.1 to 6.3 | 11 | 12 | – | – | – | –
C[C@@H](c1ccccc1)N(CC(=O)N(CCc1cnc[nH]1)CC(=O)N(CCCCN)CC(=O)N(CC(=O)N(CC(=O)N(CCCCN)CC(=O)N(CC(=O)N(CCc1cnc[nH]1)CC(N)=O)[C@@H](C)c1ccccc1)[C@@H](C)c1ccccc1)[C@@H](C)c1ccccc1)C(=O)CN(CCCCN)C(=O)CN(C(=O)CN(C(=O)CNCCCCN)[C@@H](C)c1ccccc1)[C@@H](C)c1ccccc1 [1-Nhis6,12, H-(Nlys-Nspe-Nspe-Nlys-Nspe-Nhis)2-NH2] (H-[Nlys][Nspe][Nspe][Nlys][Nspe][Gly(N-CH2CH2-imidazol-4-yl)][Nlys][Nspe][Nspe][Nlys][Nspe][Gly(N-CH2CH2-imidazol-4-yl)]-NH2) | – | – | – | 50 | – | >4.0 | >200/>200 μM | >200/>200 μM | 0.78 to 1.6 | –
NCCCCNCC(=O)N(CC(=O)N(CC(=O)N(CCCCN)CC(=O)N(CC(=O)N(CC(=O)N(CCCCN)CC(=O)N(CC(=O)N(CC(=O)N(CCCCN)CC(=O)N(CC(=O)N(CC(N)=O)Cc1ccccc1)Cc1ccccc1)Cc1ccccc1)Cc1ccccc1)Cc1ccccc1)Cc1ccccc1)Cc1ccccc1)Cc1ccccc1 [1achiral, H-(Nlys-Npm-Npm)4-NH2] (H-[Nlys][Nphe][Nphe][Nlys][Nphe][Nphe][Nlys][Nphe][Nphe][Nlys][Nphe][Nphe]-NH2) | – | – | 235 | 12.5 | 15 | 14 | 180 µM | > 200 µM | 1.6 | –
CC(C)[C@H](C)N(CC(=O)N(CC(=O)N(CCCCN)CC(=O)N(CC(=O)N(CC(=O)N(CCCCN)CC(=O)N(CC(=O)N(CC(=O)N(CCCCN)CC(=O)N(CC(=O)N(CC(N)=O)[C@@H](C)c1ccccc1)[C@@H](C)C(C)C)[C@@H](C)c1ccccc1)[C@@H](C)C(C)C)[C@@H](C)c1ccccc1)[C@@H](C)C(C)C)[C@@H](C)c1ccccc1)C(=O)CNCCCCN [1-Nsdp2,5,8,11, H-(Nlys-Nsdp-Nspe)4-NH2] (H-[Nlys][X1][Nspe][Nlys][X1][Nspe][Nlys][X1][Nspe][Nlys][X1][Nspe]-NH2) | – | – | 142 | – | > 9.7 and 9.7 | – | – | – | – | 9.7
